Patent US9765092B2, “Tricyclic piperidine compounds” (ACTELION PHARMACEUTICALS LTD, priority 2013, dated 2017)

Biological target: human TPH1 (Homo sapiens (Human), UniProt P17752)
Assay: Biochemical in vitro assay using fluorescence readout (TPH1 inhibition)
[1] = full length human TPH1, 40 μM L-tryptophan, 15° C., 60 minutes, fluorescence at 540 nm, mean if determined several times
[2] = human TPH1, fluorescence readout

human TPH1, sequence (P17752 whole entry): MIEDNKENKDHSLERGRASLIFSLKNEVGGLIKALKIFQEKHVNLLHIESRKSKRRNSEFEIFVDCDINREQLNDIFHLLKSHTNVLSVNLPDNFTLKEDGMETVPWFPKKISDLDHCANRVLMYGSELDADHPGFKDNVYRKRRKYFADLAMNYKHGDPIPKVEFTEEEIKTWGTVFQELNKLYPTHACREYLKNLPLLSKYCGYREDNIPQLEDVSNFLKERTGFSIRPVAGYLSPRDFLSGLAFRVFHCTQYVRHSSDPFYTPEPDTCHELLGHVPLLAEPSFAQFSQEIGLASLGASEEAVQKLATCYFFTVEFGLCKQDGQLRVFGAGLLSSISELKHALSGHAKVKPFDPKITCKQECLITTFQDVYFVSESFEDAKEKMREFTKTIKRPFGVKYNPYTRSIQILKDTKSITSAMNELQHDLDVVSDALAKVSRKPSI

SMILES	IC50 [1] [nM]	IC50 [2] [nM]
Cc1nn2c3c(nc2s1)CCN(C(=O)COc1ccc(N2CCOCC2)nc1Cl)C3c1nc(C(=O)O)cs1 (stereo not shown) [Example 1.41.1, 2-(6-(2-((2-chloro-6-morpholinopyridin-3-yl)oxy)acetyl)-2-methyl-5,6,7,8-tetrahydro-[1,3,4]thiadiazolo[2′,3′:2,3]imidazo[4,5-c]pyridin-5-yl)thiazole-4-carboxylic acid]	65	–
CCc1nc(C)ccc1OCC(=O)N1CCc2nc3sc(C)nn3c2C1c1ccc(Cl)cc1F (stereo not shown) [Example 1.4.2, 1-(5-(4-chloro-2-fluorophenyl)-2-methyl-7,8-dihydro-[1,3,4]thiadiazolo[2′,3′:2,3]imidazo[4,5-c]pyridin-6(5H)-yl)-2-((2-ethyl-6-methylpyridin-3-yl)oxy)ethanone]	–	13
COc1ccc(C2c3c(nc4sccn34)CCN2C(=O)COc2ccc3ccccc3c2)cc1OC (stereo not shown) [Example 6.1.1, 1-(5-(3,4-dimethoxyphenyl)-7,8-dihydrothiazolo-[2′,3′:2,3]imidazo[4,5-c]pyridin-6(5H)-yl)-2-(naphthalen-2-yloxy)ethanone]	–	4
Cc1nn2c3c(nc2s1)CCN(C(=O)COc1ccc(C(=O)N(C)C)nc1Cl)C3c1cnc(-c2ccccc2)s1 (stereo not shown) [Example 1.60.1, 6-chloro-N,N-dimethyl-5-(2-(2-methyl-5-(2-phenylthiazol-5-yl)-7,8-dihydro-[1,3,4]thiadiazolo[2′,3′:2,3]imidazo[4,5-c]pyridin-6(5H)-yl)-2-oxoethoxy)picolinamide]	–	14
CCc1nc(C)ccc1OCC(=O)N1CCc2nc3sc(C)nn3c2C1c1cnc(C2CC2)nc1C (stereo not shown) [Example 1.10.3, 1-(5-(2-cyclopropyl-4-methylpyrimidin-5-yl)-2-methyl-7,8-dihydro-[1,3,4]thiadiazolo[2′,3′:2,3]imidazo[4,5-c]pyridin-6(5H)-yl)-2-((2-ethyl-6-methylpyridin-3-yl)oxy)ethanone]	–	38
COc1ccc(C2c3c(nc4sc(C)nn34)CCN2C(=O)COc2ccc3ccccc3c2)cc1OC (stereo not shown) [Example 1.1.1, 1-(5-(3,4-dimethoxyphenyl)-2-methyl-7,8-dihydro-[1,3,4]thiadiazolo[2′,3′:2,3]imidazo[4,5-c]pyridin-6(5H)-yl)-2-(naphthalen-2-yloxy)ethanone]	–	10
CCOC(=O)c1coc(C2c3c(nc4sc(C)nn34)CCN2C(=O)COc2ccc(N3CCOCC3)nc2Cl)n1 (stereo not shown) [Example 1.29.1, Ethyl 2-(6-(2-((2-chloro-6-morpholinopyridin-3-yl)oxy)acetyl)-2-methyl-5,6,7,8-tetrahydro-[1,3,4]thiadiazolo [2′,3′:2,3]imidazo[4,5-c]pyridin-5-yl)oxazole-4-carboxylate]	–	20
CCc1nc(NS(C)(=O)=O)ccc1OCC(=O)N1CCc2nc3sc(C(F)(F)F)nn3c2C1c1ccc(C)cc1F (stereo not shown) [Example 5.3.1, N-(6-ethyl-5-(2-(5-(2-fluoro-4-methylphenyl)-2-(trifluoromethyl)-7,8-dihydro-[1,3,4]thiadiazolo[2′,3′:2,3]imidazo[4,5-c]pyridin-6(5H)-yl)-2-oxoethoxy)pyridin-2-yl)methanesulfonamide]	–	28
Cc1nn2c3c(nc2s1)CCN(C(=O)COc1ccc(NS(C)(=O)=O)nc1Cl)C3c1ncc(C(=O)N(C)C)s1 (stereo not shown) [Example 1.37.3, 2-(6-(2-((2-Chloro-6-(methylsulfonamido)pyridin-3-yl)oxy)acetyl)-2-methyl-5,6,7,8-tetrahydro-[1,3,4]thiadiazolo[2′,3′:2,3]imidazo[4,5-c]pyridin-5-yl)-N,N-dimethylthiazole-5-carboxamide]	40	–
CCc1c(OCC(=O)N2CCc3nc4sc(C)nn4c3C2c2ccc(C3CC3)cc2F)ccc(C)[n+]1[O-] (stereo not shown) [Example 1.6.20, 3-(2-(5-(4-cyclopropyl-2-fluorophenyl)-2-methyl-7,8-dihydro-[1,3,4]thiadiazolo[2′,3′:2,3]imidazo[4,5-c]pyridin-6(5H)-yl)-2-oxoethoxy)-2-ethyl-6-methylpyridine-1-oxide]	–	94
